US20080058373A1, “Compositions and Methods for Treating or Preventing Glaucoma or Progression Thereof” (priority 2006, published 2008)
Where “and” joins values, the source holds several entries; their conditions need not be identical. Equal values may be shown once.

Tests used:
[1] = system: Leukocytes (PMN); assay: Leukocytes (PMN) measurement in aqueous humor, rabbit paracentesis model; format: in vivo; conditions: for PMN numbers in aqueous humor, Mean: second paracentesis, group mean
Experimental: Each rabbit was placed in a restraint device and tagged with the alphanumeric code. The formulations were instilled (50 μl) into the conjunctival sac of both eyes 180, 120, 90 and 30 min before the first paracentesis; then 15, 30, 90 min after the first paracentesis. To perform the first paracentesis the animals were anaesthetized by intravenous injection of 5 mg/kg Zoletil® (Virbac; 2.5 mg/kg tiletamine HCl and 2.5 mg/kg zolazepam HCl) and one drop of local anesthetic (Novesina®, Novartis) was administered to the eye. Anterior chamber paracentesis was performed with a 26 G needle attached to a tuberculin syringe; the needle was introduced into the anterior chamber through the cornea, taking care not to damage the tissues. Two hours after the first paracentesis, the animals were sacrificed with 0.4 ml Tanax® (Intervet International B.V.) and the second paracentesis was performed. About 100 μl of aqueous humor were removed at the second paracentesis. Aqueous humor was immediately split in four aliquots and stored at −80° C. until analysis. Then both eyes were enucleated and the iris-ciliary body was carefully excised, placed in polypropylene tubes, and stored at −80° C. until analysis.
For the determination of the number of leukocytes we used a haemocytometer (Improved Neubauer Chamber; Bright-line, Hausser Scientific) and a Polyvar 2 microscope (Reichert-Jung).

[2] = system: New Zealand White rabbits; assay: Intraocular pressure (IOP) in rabbits, topical dosing four times daily; format: in vivo; conditions: for Intraocular Pressure (MEAN): treated right eyes, A.M. readings
Experimental: Seventy-five rabbits underwent two weeks of IOP training to condition them for IOP measurement. IOP was determined for both eyes of each animal using a Medtronic Solan, Model 30 classic pneumatonometer. Proparacaine hydrochloride 0.5% (1 drop) was delivered to each eye prior to IOP measurement. A two-point diurnal curve was established: IOP was recorded on Monday, Wednesday, and Friday of each week, at 8 a.m. and 12 p.m., with a ±1 hour range for each of these times. The time of the measurements was recorded.
On Days 1-31, animals received daily topical doses of the appropriate test article into the right eye. Animals were dosed four times per day, with doses administered 2 hours apart. Doses were administered using a calibrated 50-μL pipette. The eyelids were held close for 10 seconds immediately following dosing. The time of each dose administration was recorded.
Intraocular pressure (“IOP”) was determined for both eyes of each animal on Days 3, 5, 10, 12, 16, 18, 22, 24, 26, 30, and 32. IOP was evaluated with a Medtronic Solan, Model 30 classic pneumatonometer. Proparacaine hydrochloride 0.5% (1 drop) was delivered to each eye prior to IOP measurement. IOP was measured on Monday, Wednesday, and Friday of each week. A two-point diurnal curve was established: IOP was recorded at 8 a.m. and 12 p.m. on Day 3, and at 8 a.m. and 2 p.m. on later days, with a ±1 hour range for each of these times. The time of the measurements was recorded.
Descriptive statistics were prepared for IOP data of each treatment group (left and right eyes separately) at each measurement interval. The statistics included the number of observations (“N”), mean, standard deviation (“STD”), and standard error (“SEM”). Statistical analyses were conducted on IOP results using Statistical Analysis Systems (SAS Institute, Inc., Cary, N.C., V8.0). Parameters were evaluated using analysis of variance/GLM Procedure followed by Tukey's Standardized Range Test (Tukey, 1985) for post hoc comparisons of group means. The level of significance was set at a probability of p<0.05 for all statistical procedures. Group IOP means were compared at each interval, with left and right eyes compared separately.

## Cc1ccc2c(NCC(O)(CC(C)(C)c3cc(F)cc4c3OCC4)C(F)(F)F)cccc2n1 (stereo not shown)
[1]; 0.1% topical
  PMN numbers in aqueous humor, Mean: 28.333 number/μl
[1]; 0.5% topical
  PMN numbers in aqueous humor, Mean: 21.250 number/μl
[1]; 1% topical, samples collected at the second paracentesis, single eyes, listed as BOL
  PMN numbers in aqueous humor (raw data): 30 number/μl and 20 number/μl and 40 number/μl
[1]; 1% topical
  PMN numbers in aqueous humor, Mean: 28.750 number/μl
[2]; 1 mg/g (Group D), Day 3
  Intraocular Pressure in Untreated Left Eyes (A.M. Readings), MEAN: 23.5 mmHg
[2]; 1 mg/g (Group D), Day 5
  Intraocular Pressure in Untreated Left Eyes (A.M. Readings), MEAN: 24.4 mmHg
[2]; 1 mg/g (Group D), Day 10
  Intraocular Pressure in Untreated Left Eyes (A.M. Readings), MEAN: 24.5 mmHg
[2]; 1 mg/g (Group D), Day 12
  Intraocular Pressure in Untreated Left Eyes (A.M. Readings), MEAN: 22.2 mmHg
[2]; 1 mg/g (Group D), Day 16
  Intraocular Pressure in Untreated Left Eyes (A.M. Readings), MEAN: 21.6 mmHg
[2]; 1 mg/g (Group D), Day 18
  Intraocular Pressure in Untreated Left Eyes (A.M. Readings), MEAN: 23.3 mmHg
[2]; 1 mg/g (Group D), Day 22
  Intraocular Pressure in Untreated Left Eyes (A.M. Readings), MEAN: 22.4 mmHg
[2]; 1 mg/g (Group D), Day 24
  Intraocular Pressure in Untreated Left Eyes (A.M. Readings), MEAN: 22.4 mmHg
[2]; 1 mg/g (Group D), Day 26
  Intraocular Pressure in Untreated Left Eyes (A.M. Readings), MEAN: 22.9 mmHg
[2]; 1 mg/g (Group D), Day 30
  Intraocular Pressure in Untreated Left Eyes (A.M. Readings), MEAN: 23.4 mmHg
[2]; 1 mg/g (Group D), Day 32
  Intraocular Pressure in Untreated Left Eyes (A.M. Readings), MEAN: 24.1 mmHg
[2]; 1 mg/g (Group D), Pre-Study
  Intraocular Pressure in Untreated Left Eyes (A.M. Readings), MEAN: 23.9 mmHg
[2]; 5 mg/g (Group C), Day 3
  Intraocular Pressure in Untreated Left Eyes (A.M. Readings), MEAN: 23.8 mmHg
[2]; 5 mg/g (Group C), Day 5
  Intraocular Pressure in Untreated Left Eyes (A.M. Readings), MEAN: 24.4 mmHg
[2]; 5 mg/g (Group C), Day 10
  Intraocular Pressure in Untreated Left Eyes (A.M. Readings), MEAN: 24.6 mmHg
[2]; 5 mg/g (Group C), Day 12
  Intraocular Pressure in Untreated Left Eyes (A.M. Readings), MEAN: 23.8 mmHg
[2]; 5 mg/g (Group C), Day 16
  Intraocular Pressure in Untreated Left Eyes (A.M. Readings), MEAN: 23.4 mmHg
[2]; 5 mg/g (Group C), Day 18
  Intraocular Pressure in Untreated Left Eyes (A.M. Readings), MEAN: 21.9 mmHg
[2]; 5 mg/g (Group C), Day 22
  Intraocular Pressure in Untreated Left Eyes (A.M. Readings), MEAN: 21.6 mmHg
[2]; 5 mg/g (Group C), Day 24
  Intraocular Pressure in Untreated Left Eyes (A.M. Readings), MEAN: 22.1 mmHg
[2]; 5 mg/g (Group C), Day 26
  Intraocular Pressure in Untreated Left Eyes (A.M. Readings), MEAN: 21.7 mmHg
[2]; 5 mg/g (Group C), Day 30
  Intraocular Pressure in Untreated Left Eyes (A.M. Readings), MEAN: 22.6 mmHg
[2]; 5 mg/g (Group C), Day 32
  Intraocular Pressure in Untreated Left Eyes (A.M. Readings), MEAN: 23.1 mmHg
[2]; 5 mg/g (Group C), Pre-Study
  Intraocular Pressure in Untreated Left Eyes (A.M. Readings), MEAN: 24.2 mmHg
[2]; 10 mg/g (Group B), Day 3
  Intraocular Pressure in Untreated Left Eyes (A.M. Readings), MEAN: 23.3 mmHg
[2]; 10 mg/g (Group B), Day 5
  Intraocular Pressure in Untreated Left Eyes (A.M. Readings), MEAN: 23.4 mmHg
[2]; 10 mg/g (Group B), Day 10
  Intraocular Pressure in Untreated Left Eyes (A.M. Readings), MEAN: 24.0 mmHg
[2]; 10 mg/g (Group B), Day 12
  Intraocular Pressure in Untreated Left Eyes (A.M. Readings), MEAN: 23.8 mmHg
[2]; 10 mg/g (Group B), Day 16
  Intraocular Pressure in Untreated Left Eyes (A.M. Readings), MEAN: 22.9 mmHg
[2]; 10 mg/g (Group B), Day 18
  Intraocular Pressure in Untreated Left Eyes (A.M. Readings), MEAN: 21.2 mmHg
[2]; 10 mg/g (Group B), Day 22
  Intraocular Pressure in Untreated Left Eyes (A.M. Readings), MEAN: 21.8 mmHg
[2]; 10 mg/g (Group B), Day 24
  Intraocular Pressure in Untreated Left Eyes (A.M. Readings), MEAN: 20.2 mmHg
[2]; 10 mg/g (Group B), Day 26
  Intraocular Pressure in Untreated Left Eyes (A.M. Readings), MEAN: 21.7 mmHg
[2]; 10 mg/g (Group B), Day 30
  Intraocular Pressure in Untreated Left Eyes (A.M. Readings), MEAN: 22.7 mmHg
[2]; 10 mg/g (Group B), Day 32
  Intraocular Pressure in Untreated Left Eyes (A.M. Readings), MEAN: 22.9 mmHg
[2]; 10 mg/g (Group B), Pre-Study
  Intraocular Pressure in Untreated Left Eyes (A.M. Readings), MEAN: 23.8 mmHg
[2]; Day 3, 1 mg/g (Group D)
  Intraocular Pressure (MEAN): 23.0 mmHg
[2]; Day 3, 5 mg/g (Group C)
  Intraocular Pressure (MEAN): 23.7 mmHg
[2]; Day 3, 10 mg/g (Group B)
  Intraocular Pressure (MEAN): 22.7 mmHg
[2]; Day 5, 1 mg/g (Group D)
  Intraocular Pressure (MEAN): 24.7 mmHg
[2]; Day 5, 5 mg/g (Group C)
  Intraocular Pressure (MEAN): 24.7 mmHg
[2]; Day 5, 10 mg/g (Group B)
  Intraocular Pressure (MEAN): 23.8 mmHg
[2]; Day 10, 1 mg/g (Group D)
  Intraocular Pressure (MEAN): 24.8 mmHg
[2]; Day 10, 5 mg/g (Group C)
  Intraocular Pressure (MEAN): 25.2 mmHg
[2]; Day 10, 10 mg/g (Group B)
  Intraocular Pressure (MEAN): 24.5 mmHg
[2]; Day 12, 1 mg/g (Group D)
  Intraocular Pressure (MEAN): 23.4 mmHg
[2]; Day 12, 5 mg/g (Group C)
  Intraocular Pressure (MEAN): 25.0 mmHg
[2]; Day 12, 10 mg/g (Group B)
  Intraocular Pressure (MEAN): 23.9 mmHg
[2]; Day 16, 1 mg/g (Group D)
  Intraocular Pressure (MEAN): 22.1 mmHg
[2]; Day 16, 5 mg/g (Group C)
  Intraocular Pressure (MEAN): 24.3 mmHg
[2]; Day 16, 10 mg/g (Group B)
  Intraocular Pressure (MEAN): 23.4 mmHg
[2]; Day 18, 1 mg/g (Group D)
  Intraocular Pressure (MEAN): 23.7 mmHg
[2]; Day 18, 5 mg/g (Group C)
  Intraocular Pressure (MEAN): 23.9 mmHg
[2]; Day 18, 10 mg/g (Group B)
  Intraocular Pressure (MEAN): 22.3 mmHg
[2]; Day 22, 1 mg/g (Group D)
  Intraocular Pressure (MEAN): 23.2 mmHg
[2]; Day 22, 5 mg/g (Group C)
  Intraocular Pressure (MEAN): 22.4 mmHg
[2]; Day 22, 10 mg/g (Group B)
  Intraocular Pressure (MEAN): 22.4 mmHg
[2]; Day 24, 1 mg/g (Group D)
  Intraocular Pressure (MEAN): 22.1 mmHg
[2]; Day 24, 5 mg/g (Group C)
  Intraocular Pressure (MEAN): 23.8 mmHg
[2]; Day 24, 10 mg/g (Group B)
  Intraocular Pressure (MEAN): 21.2 mmHg
[2]; Day 26, 1 mg/g (Group D)
  Intraocular Pressure (MEAN): 23.1 mmHg
[2]; Day 26, 5 mg/g (Group C)
  Intraocular Pressure (MEAN): 22.1 mmHg
[2]; Day 26, 10 mg/g (Group B)
  Intraocular Pressure (MEAN): 21.8 mmHg
[2]; Day 30, 1 mg/g (Group D)
  Intraocular Pressure (MEAN): 24.2 mmHg
[2]; Day 30, 5 mg/g (Group C)
  Intraocular Pressure (MEAN): 22.9 mmHg
[2]; Day 30, 10 mg/g (Group B)
  Intraocular Pressure (MEAN): 22.7 mmHg
